Read-outs that look alike come from different tables or passages of the source. Marks after values point to notes of the source that are not given here. Blank lines part the entries; values can stand above or below the compound they belong to.
Assays:
[1] = pH-dependent transport of propranolol; assay type: in vitro ADME, rainbow trout (Oncorhynchus mykiss); conditions: rainbow trout (Oncorhynchus mykiss); for Papp B→A at 6 h, 1 μg L^−1: 1 μg L^−1, read-out: Papp B:A (efflux permeability)
DSI gill cell epithelium [2] = test: pH-dependent transport of propranolol; assay type: in vitro ADME, rainbow trout (Oncorhynchus mykiss); conditions: pH from 8 to 9.5; asymmetrical; 6 h
DSI gill cell epithelium [3] = test: Concentration-dependent uptake of propranolol, in vitro basal concentrations; assay type: in vitro ADME, rainbow trout (Oncorhynchus mykiss); conditions: for In vitro concentration (basal compartment): 6 h apical exposure, asymmetrical
Method: Radioactivity was analyzed as previously described in Section 2.3.
This was calculated using the mammalian fish leverage model, whereby the predicted plasma concentration can be described by multiplying the environmental concentration by the blood to water partitioning coefficient ([Huggett et al., 2004]) using the Fitzsimmons model for the partitioning of compounds between blood and water ([Fitzsimmons et al., 2001]).

[4] = set-up: method as in AstraZeneca, 2014; conditions: experimentally measured values, ref AstraZeneca, 2014, cited from earlier work
[5] = set-up: method as in Owen et al., 2009; conditions: ref Owen et al., 2009, cited from earlier work; for In vivo plasma concentration: 40 days exposure
DSI gill cell epithelium [6] = test: Concentration equilibrium transport assays (CETA); conditions: for CETA, percentage of initial concentration apical versus basal: 1 μg L^−1 both sides, over 48 h
[7] = Bidirectional transport assays (BTA), apparent permeability coefficients and transport ratios; conditions: rainbow trout (Oncorhynchus mykiss)
DSI gill cell epithelium [8] = test: as above; conditions: for difference between Papp A:B and Papp B:A: 6 h; for time-dependent BTA, uptake versus efflux (% of donor concentration): over 48 h
[9] = cited from earlier work
[10] = test system: propranolol uptake across DSI gill cell epithelium; test: Inhibition of the uptake of propranolol by transporter inhibitors; conditions: 400 nM inhibitor, 48 h
[11] = Membrane (paracellular) permeability with 14C-mannitol; assay type: in vitro ADME, rainbow trout (Oncorhynchus mykiss); conditions: for Papp A→B at 24 h, 0.43 nM: rainbow trout (Oncorhynchus mykiss)
DSI gill cell epithelium [12] = conditions: for Uptake TR (Papp A:B/Papp B:A): rainbow trout (Oncorhynchus mykiss)
in vitro = conditions: rainbow trout (Oncorhynchus mykiss)
[13] = nominal water concentration 10 μg L^−1
[14] = nominal water concentration 100 μg L^−1
[15] = nominal water concentration 1000 μg L^−1
[16] = nominal water concentration 10,000 μg L^−1

SMILES: CC(C)NCC(O)COc1cccc2ccccc12 (centres unmarked) [Propranolol, propranolol]
Papp A→B at 6 h, 1 μg L^−1 ([1]; apical freshwater pH 6, asymmetrical, 1 μg L^−1, read-out: Papp A:B (uptake permeability)): 0.4 ± 0.03 ×10⁻⁶ cm/s
Papp B→A at 6 h, 1 μg L^−1 ([1]; apical freshwater pH 6, asymmetrical): 2.8 ± 0.1 ×10⁻⁶ cm/s
Papp B→A at 6 h, 1 μg L^−1 ([1]; apical freshwater pH 8, asymmetrical): 0.8 ± 0.1 ×10⁻⁶ cm/s
effect of pH increase on Papp (DSI gill cell epithelium [2]): without significant effect
in vitro basolateral concentration as average share of actual plasma concentration (DSI gill cell epithelium [3]): 16%
in vitro basolateral concentration as average share of predicted plasma concentration (DSI gill cell epithelium [3]): 6%
slope of [rate] versus [concentration] (flux) (DSI gill cell epithelium [3]; 0.014–10,000 μg L^−1, 6 h, linear regression, n = 54, r^2 = 0.974): 0.052
slope of [in vitro] versus [actual] plasma concentration (DSI gill cell epithelium [3]; n = 21, r^2 = 0.966): 0.155
slope of [in vitro] versus [predicted] plasma concentration (DSI gill cell epithelium [3]; n = 21, r^2 = 0.995): 0.063
In vitro concentration (basal compartment) (DSI gill cell epithelium [3]; nominal water concentration 0.1 μg L^−1): 0.04 (±0.002) ng mL^−1
In vitro concentration (basal compartment) (DSI gill cell epithelium [3]; nominal water concentration 1.0 μg L^−1): 0.10 (±0.001) ng mL^−1
In vitro concentration (basal compartment) (DSI gill cell epithelium [3]; [13]): 0.72 (±0.02) ng mL^−1
In vitro concentration (basal compartment) (DSI gill cell epithelium [3]; [14]): 7.5 (±0.3) ng mL^−1
In vitro concentration (basal compartment) (DSI gill cell epithelium [3]; [15]): 79.5 (±7.3) ng mL^−1
In vitro concentration (basal compartment) (DSI gill cell epithelium [3]; [16]): 812 (±158) ng mL^−1
In vitro concentration (basal compartment) (DSI gill cell epithelium [3]; nominal water concentration 100,000 μg L^−1): 5545 (±313) ng mL^−1
log Kow ([4]; pH 7.4): 1.12 ^*
In vivo plasma concentration ([5]; nominal water concentration 1.0 μg L^−1, pooled plasma sample): 0.94 ^* (n/a) ng mL^−1
In vivo plasma concentration [5, 13]: 3.3 (±0.4) ng mL^−1
In vivo plasma concentration [5, 14]: 16 (±7) ng mL^−1
In vivo plasma concentration [5, 15]: 280 (±116) ng mL^−1
In vivo plasma concentration [5, 16]: 5200 (±1333) ng mL^−1
actual plasma concentrations as share of predicted [5]: 59%
facilitated transport as share of the total transport (DSI gill cell epithelium [6]; CETA): approximately 10%
CETA, percentage of initial concentration apical versus basal (DSI gill cell epithelium [6]; asymmetrical conditions): increased apical to basal transport
CETA, percentage of initial concentration apical versus basal (DSI gill cell epithelium [6]; symmetrical conditions): significantly more than the basal
Papp A→B at 6 h, 1 μg L^−1 [7]: 1.7 ± 0.2 ×10⁻⁶ cm/s
Papp B→A at 6 h, 1 μg L^−1 [7]: 1.1 ± 0.02 ×10⁻⁶ cm/s
Papp B→A at 6 h, 1 μg L^−1 ([7]; pH 7.7): 0.8 ± 0.1 ×10⁻⁶ cm/s
difference between Papp A:B and Papp B:A (DSI gill cell epithelium [8]; asymmetrical conditions): significantly higher
time-dependent BTA, uptake versus efflux (% of donor concentration) (DSI gill cell epithelium [8]; asymmetrical conditions): taken up across the gill cell surface than effluxed

SMILES: COCCc1ccc(OCC(O)CNC(C)C)cc1 (centres unmarked) [Metoprolol, metoprolol]
CETA, percentage of initial concentration apical versus basal (DSI gill cell epithelium [6]; asymmetrical conditions): no signs of facilitated transport
CETA, percentage of initial concentration apical versus basal (DSI gill cell epithelium [6]; symmetrical conditions): no significant differences
difference between Papp A:B and Papp B:A (DSI gill cell epithelium [8]; asymmetrical conditions): no significant differences
time-dependent BTA, uptake versus efflux (% of donor concentration) (DSI gill cell epithelium [8]; asymmetrical conditions): slightly greater uptake than efflux

SMILES: CN(C)C(=O)CCSC(SCCC(=O)O)c1cccc(/C=C/c2ccc3ccc(Cl)cc3n2)c1 (centres unmarked) [MK571]
decrease in propranolol permeability compared to the control ([10]; apical application): approximately 40%
decrease in propranolol permeability compared to the control ([10]; basal application): approximately 40%

SMILES: OC[C@@H](O)[C@@H](O)[C@H](O)[C@H](O)CO [Mannitol, mannitol]
Papp at 24 h, 0.43 nM ([11]; pH 7.7, cell free inserts, TER 0 Ω cm^2 (blanked), apical freshwater, read-out: Mannitol flux (permeability)): 3.6 ± 0.2 ×10⁻⁶ cm/s
Papp A→B at 24 h, 0.43 nM ([11]; pH 7.7, DSI epithelia with TER 200–1000 Ω cm^2, apical freshwater, read-out: mannitol permeability): 1.1 ± 1.1 ×10⁻⁶ cm/s
Papp A→B at 24 h, 0.43 nM ([11]; pH 7.7, DSI epithelia with TER >2 kΩ cm^2, apical freshwater, read-out: mannitol permeability (Papp A:B)): 0.1 ± 0.01 ×10⁻⁶ cm/s

SMILES: COc1ccc(CC(C)NCC(O)c2ccc(O)c(NC=O)c2)cc1 (centres unmarked) [Formoterol, formoterol]
difference between Papp A:B and Papp B:A (DSI gill cell epithelium [12]): no significant differences
time-dependent BTA, uptake versus efflux (% of donor concentration) (DSI gill cell epithelium [12]): slightly greater uptake than efflux
Uptake TR (Papp A:B/Papp B:A) (DSI gill cell epithelium [12]): 1.08
Uptake TR (Papp A:B/Papp B:A) (DSI gill cell epithelium [12]; pH 7.7): 0.97
pKa (acidic) ([9]; acidic): 7.9
pKa (basic) ([9]; basic): 9.2
efflux ratio (in vitro): 0.93
efflux ratio (in vitro; pH 7.7): 1.03
CETA, percentage of initial concentration apical versus basal (DSI gill cell epithelium [6]; asymmetrical conditions): no signs of facilitated transport
CETA, percentage of initial concentration apical versus basal (DSI gill cell epithelium [6]; symmetrical conditions): more in the apical than basal

Further lines, with some results ahead:

facilitated transport as share of the total transport, efflux (DSI gill cell epithelium [6]; CETA, efflux): around 5%
CETA, percentage of initial concentration apical versus basal (DSI gill cell epithelium [6]; symmetrical conditions): no significant differences
efflux ratio at 6 h, 1 μg L^−1 [7]: 0.83
difference between Papp A:B and Papp B:A (DSI gill cell epithelium [8]; asymmetrical conditions): no significant differences
time-dependent BTA, uptake versus efflux (% of donor concentration) (DSI gill cell epithelium [8]; symmetrical conditions): greater efflux transport
SMILES: CNC(=C[N+](=O)[O-])NCCSCc1ccc(CN(C)C)o1 [Ranitidine, ranitidine]
pKa [9]: 8.08
time-dependent BTA, uptake versus efflux (% of donor concentration) (DSI gill cell epithelium [8]; asymmetrical conditions): taken up across the gill cell surface than effluxed

CETA, percentage of initial concentration apical versus basal (DSI gill cell epithelium [6]; asymmetrical conditions): no signs of facilitated transport
CETA, percentage of initial concentration apical versus basal (DSI gill cell epithelium [6]; symmetrical conditions): no significant differences
efflux ratio at 6 h, 1 μg L^−1 [7]: 1.09
efflux ratio at 6 h, 1 μg L^−1 ([7]; pH 7.7): 1.13
difference between Papp A:B and Papp B:A (DSI gill cell epithelium [8]; asymmetrical conditions): no significant differences
time-dependent BTA, uptake versus efflux (% of donor concentration) (DSI gill cell epithelium [8]; asymmetrical conditions): slightly greater uptake than efflux
SMILES: CC(C)(C)NCC(O)c1cc(O)cc(O)c1 (centres unmarked) [Terbutaline, terbutaline]
log Kow ([4]; no pH given): 1.29

facilitated transport as share of the total transport (DSI gill cell epithelium [6]; CETA): approximately 10%
CETA, percentage of initial concentration apical versus basal (DSI gill cell epithelium [6]; asymmetrical conditions): increased apical to basal transport
SMILES: CN(C)CCCN1c2ccccc2CCc2ccccc21 [Imipramine, imipramine]
pKa [9]: around 9.5
CETA, percentage of initial concentration apical versus basal (DSI gill cell epithelium [6]; symmetrical conditions): increased basal to apical facilitated transport

— publication PMC4303912, “A primary fish gill cell culture model to assess pharmaceutical uptake and efflux: Evidence for passive and facilitated transport” (Aquatic Toxicology (Amsterdam, Netherlands), 2015)
